Measured values reported in patent US20160237400A1, “ISOLATION OF NON-EMBRYONIC STEM CELLS AND USES THEREOF” (The Jackson Laboratory, priority 2013, published 2016).
Entries after “also recorded” stand apart in the source; their conditions may differ.

Experiments:
[1] = test system: CSCs from the IC#1 library (G0), high-grade ovarian cancer; experiment: plate (colony formation) assay, rhodamine B stain, treatment-naive CSC library; format: cell-based, human
Method: To probe for paclitaxel resistance in the IC#1 library of CSCs, a paclitaxel dose-response curved were established by challenging 10,000 CSCs with a spectrum of paclitaxel concentrations. […] The plates were then stained with rhodamine B. Rhodamine B-stained 100 nM paclitaxel treatment plate yielded less than 0.1% of the control colonies.
(§1) Survivors were re-plated en masse, and cycled through two additional rounds of 100 nM paclitaxel for 3 hours with recovery in between for 10 days, after which visible colonies were selected and individually expanded as pedigrees (FIG. 28B). To determine relationships between these ad hoc, paclitaxel-resistant pedigrees from the library and the 92 randomly sampled pedigrees from the treatment-naïve IC#1 library assessed for CSC heterogeneity, their CNV profiles were mapped onto the heterogeneity map established for IC#1.
(§2) High-grade ovarian cancer was surgically resected, and tumor tissue was collected into cold F12 media (Gibco, USA) with 5% fetal bovine serum (HyClone, USA) and then minced by sterile scalpel into 0.2-0.5 mm^3 sizes to a viscous and homogeneous appearance. The minced tissue was digested in 2 mg/mL collagenase type IV (Gibco, USA) at 37° C. for 30-60 min with agitation. Dissociated cells were passed through a 70 μm Nylon mesh (Falcon, USA) to remove aggregates and then were washed four times in cold F12 media, and then seeded onto a feeder layer of lethally irradiated 3T3-J2 cells in c-FAD media modified to SCM-68 media by the addition of 125 ng/mL R-spondin1 (R&D systems, USA), 1 μM Jagged-1 (AnaSpec Inc., USA), 100 ng/ml human Noggin (Peprotech, USA), 2.5 μM Rock-inhibitor (Calbiochem, USA), 2 μM SB431542 (Cayman chemical, USA), and 10 mM nicotinamide (Sigma-Aldrich, USA).
Cells were cultured at 37° C. in a 7.5% CO2 incubator. The culture media was replaced every two days. Colonies were digested by 0.25% trypsin-EDTA solution (Gibco, USA) for 5-8 min and passaged every 7 to 10 days. […]

[2] = test system: CSC pedigrees sampled from Groups B, C, D, E, F and G of the IC#1 library; experiment: paclitaxel challenge of sampled CSC pedigrees of Groups B to G; format: cell-based, human
[3] = test system: paclitaxel resistant (G3) IC#1 CSC library; experiment: plate (colony formation) assay, paclitaxel-resistant CSC library; format: cell-based, human
Method: as §1
The GSEA data in the table above highlighted the PGR pathway. Analysis of gene expression in the IC#1 CSC library treated with successive rounds of paclitaxel indeed confirmed a progressive increase in PGR expression (FIG. 31). […] The fate of 25,000 colony forming units from the IC#1 CSC library and the paclitaxel resistant library (G3) following exposure to combinations of paclitaxel, RU486, and cisplatin were directly compared. RU486 is a PGR antagonist that has previously been tested and failed as a single agent in clinical trials for recurrent ovarian cancer.
Next, the long-term impact of these drug combinations on the paclitaxel-resistant G3 pool over successive rounds of exposure was investigated.
as §2
Cells were cultured at 37° C. in a 7.5% CO2 incubator. The culture media was replaced every two days. Colonies were digested by 0.25% trypsin-EDTA solution (Gibco, USA) for 5-8 min and passaged every 7 to 10 days. Colonies were trypsinized by TrypLE Express solution (Gibco, USA) for 8-15 min at 37° C. and cell suspensions were passed through 30 μm filters (Miltenyi Biotec, Germany). Approximately 20,000 epithelial cells were seeded to each well of 6-well plate. Cloning cylinder (Pyrex, USA) and high vacuum grease (Dow Corning, USA) were used to select single colonies for pedigrees. Gene expression analyses were performed on cells derived from passage 2-8 (P2-P8) cultures.

[4] = test system: CD166hi CSC clones from the IC#1 library; experiment: drug challenge of CD166hi sorted CSC clones; format: cell-based, human; settings: clones flow sorted for CD166 from the IC#1 library, individually tested
[5] = test system: N11 CSC pedigree (IC#1 library); experiment: paclitaxel challenge of sampled CSC pedigree N11; format: cell-based, human
[6] = test system: CSCs from the IC#2 library; experiment: paclitaxel challenge of IC#2 CSCs; format: cell-based, human; settings: parameters identical to IC#1 (100 nM, 3 hours, three rounds); 37 individual CSCs
[7] = test system: stem cell colonies (DASCp63/Krt5) from Krt6-DTR and WT mouse lung; format: cell-based
[8] = test system: Krt5+ / Krt6+ cells in lung of Krt6-DTR mice; settings: in vivo

CC(=O)O[C@H]1C(=O)[C@@]2(C)[C@H]([C@H](OC(=O)c3ccccc3)[C@]3(O)C[C@H](OC(=O)[C@H](O)[C@@H](NC(=O)c4ccccc4)c4ccccc4)C(C)=C1C3(C)C)[C@]1(OC(C)=O)CO[C@@H]1C[C@@H]2O [paclitaxel]
colonies relative to control colonies ([1]; 100 nM paclitaxel for 3 hours, about 10,000 colony-forming units, rhodamine B stain): less than 0.1%
activity against the treatment naive IC#1 G0 library ([1]; 25,000 colony-forming units, single agent): strong activity
resistance to initial challenge ([1]; single dose of 100 nM paclitaxel, IC#1 library): little or no resistance
resistance at the third round ([2]; CSCs within group B, third round of paclitaxel): less than 35%
resistance to initial challenge ([2]; single dose of 100 nM paclitaxel, representative CSCs from the other six clusters): little or no resistance
survival (colonies) of the paclitaxel-resistant G3 pool ([3]; 25,000 colony-forming units, G4 challenge): 15%
resistance over four additional successive rounds of exposure, measured by colony formation ([3]; Ru486 10 μM, paclitaxel 100 nM, cisplatin 20 μM): progressive resistance
CD166hi clones tested with intrinsic resistance [4]: 21%
cells survived initial challenge ([5]; initial challenge, single dose of 100 nM paclitaxel): 17.5%
resistance after two additional challenges ([5]; third round of paclitaxel): ~100%
survival of triple paclitaxel challenge [6]: none of the 37 individual CSCs from the IC#2 library survived

CC(C)C[C@H](NC(=O)[C@H](CCc1ccccc1)NC(=O)CN1CCOCC1)C(=O)N[C@@H](Cc1ccccc1)C(=O)N[C@@H](CC(C)C)C(=O)[C@@]1(C)CO1 [carfilzomib]
effect towards resistant CSCs of IC#1 when used together with paclitaxel [3]: synthetic lethality

CC(C)C[C@H](NC(=O)[C@H](Cc1ccccc1)NC(=O)c1cnccn1)B(O)O [bortezomib]
effect towards resistant CSCs of IC#1 when used together with paclitaxel [3]: synthetic lethality

diphtheria toxin
fate of Krt6-DTR stem cell colonies on diphtheria toxin [7]: die within four days; also recorded: dies after 4 days
fate of control (WT) colonies on diphtheria toxin [7]: continued to proliferate and expand in size; also recorded: looks normal
sensitivity of Krt6 negative endothelial cells from Krt6-DTR mice [7]: insensitive
reduction of clonogenic cell number versus WT mouse with DT (clonogenic assay) [8]: 70-80%
loss of Krt5+ cells compared to wild type controls ([8]; mouse): 90%
loss of Krt6+ cells compared to wild type controls ([8]; mouse): greater than 99%
reduction of Krt5+ cell number versus WT (IF staining) ([8]; mouse, ip): 70%
reduction of Krt6+ cell number versus WT (IF staining) ([8]; mouse, ip): ~90%
